Tests used:
[1] = parameters: method as in PMID 12667689; conditions: PAMPA-BBB; cited from earlier work
recombinant human MAO-A = molecular target: T1, recombinant human MAO-A (Homo sapiens, UniProt P21397); test: MAO-A inhibition assay (kynuramine substrate) and kinetics; type: biochemical; conditions: for remaining activity at 10 µM: 10 µM compound, read-out: Residual Activity at 10 µM (%) MAO-A; for IC50: reference compounds after preincubation for 30 min with enzymes; for Ki: Lineweaver–Burk and secondary plots; for Type of MAO-A inhibition: Lineweaver–Burk plots
T1 construct: purchased Sigma-Aldrich (St. Louis, MO, USA)
T1 sequence (P21397 1-527): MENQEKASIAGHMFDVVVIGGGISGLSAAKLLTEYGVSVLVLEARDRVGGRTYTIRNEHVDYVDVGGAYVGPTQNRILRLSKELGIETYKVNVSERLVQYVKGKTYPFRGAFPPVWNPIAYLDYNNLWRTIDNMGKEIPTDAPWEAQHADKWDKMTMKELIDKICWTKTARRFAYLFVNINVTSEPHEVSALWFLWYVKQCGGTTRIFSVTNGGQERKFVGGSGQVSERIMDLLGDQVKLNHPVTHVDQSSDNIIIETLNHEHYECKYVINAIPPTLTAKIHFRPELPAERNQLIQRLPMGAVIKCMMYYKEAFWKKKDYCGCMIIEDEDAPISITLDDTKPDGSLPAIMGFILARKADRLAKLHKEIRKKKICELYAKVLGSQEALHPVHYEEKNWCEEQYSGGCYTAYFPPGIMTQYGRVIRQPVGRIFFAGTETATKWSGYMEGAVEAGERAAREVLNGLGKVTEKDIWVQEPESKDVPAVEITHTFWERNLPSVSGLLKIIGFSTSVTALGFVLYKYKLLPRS
Text: (§1) The enzymes and chemicals were purchased from Sigma-Aldrich (St. Louis, MO, USA).

[2] = Parallel artificial membrane permeability assay (PAMPA), BBB; conditions: for Papp: PAMPA
Text: The CNS bioavailability of the molecules was confirmed by a parallel artificial membrane permeability assay (PAMPA) [40].

MAO-B [3] = molecular target: T2, MAO-B (Homo sapiens, UniProt P27338); test: MAO-B inhibition assay (benzylamine substrate) and kinetics; type: biochemical; conditions: for remaining activity at 10 µM: 10 µM compound, read-out: Residual Activity at 10 µM (%) MAO-B; for IC50: reference compounds after preincubation for 30 min with enzymes; for Ki: Lineweaver–Burk and secondary plots; for Type of MAO-B inhibition: Lineweaver–Burk plots
T2 construct: purchased Sigma-Aldrich (St. Louis, MO, USA)
T2 sequence (P27338 1-520): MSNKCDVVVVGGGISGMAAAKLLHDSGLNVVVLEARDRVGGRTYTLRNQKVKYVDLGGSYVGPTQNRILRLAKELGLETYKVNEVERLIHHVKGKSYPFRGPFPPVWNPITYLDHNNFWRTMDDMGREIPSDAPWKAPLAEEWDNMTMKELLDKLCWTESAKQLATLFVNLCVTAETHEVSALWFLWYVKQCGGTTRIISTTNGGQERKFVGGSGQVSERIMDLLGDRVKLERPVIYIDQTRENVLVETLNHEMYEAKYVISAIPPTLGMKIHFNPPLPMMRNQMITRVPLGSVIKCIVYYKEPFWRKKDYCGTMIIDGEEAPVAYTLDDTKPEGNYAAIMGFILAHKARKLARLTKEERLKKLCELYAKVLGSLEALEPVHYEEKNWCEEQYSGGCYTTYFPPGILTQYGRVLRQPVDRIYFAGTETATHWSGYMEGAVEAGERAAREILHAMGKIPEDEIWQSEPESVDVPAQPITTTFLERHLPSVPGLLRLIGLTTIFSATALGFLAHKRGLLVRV
Text: as §1

AChE = AChE (Electrophorus electricus, UniProt O42275); test: AChE inhibition; type: biochemical; conditions: 10 µM compound; read-out: Residual Activity at 10 µM (%) AChE
Sequence of AChE (O42275 24-633): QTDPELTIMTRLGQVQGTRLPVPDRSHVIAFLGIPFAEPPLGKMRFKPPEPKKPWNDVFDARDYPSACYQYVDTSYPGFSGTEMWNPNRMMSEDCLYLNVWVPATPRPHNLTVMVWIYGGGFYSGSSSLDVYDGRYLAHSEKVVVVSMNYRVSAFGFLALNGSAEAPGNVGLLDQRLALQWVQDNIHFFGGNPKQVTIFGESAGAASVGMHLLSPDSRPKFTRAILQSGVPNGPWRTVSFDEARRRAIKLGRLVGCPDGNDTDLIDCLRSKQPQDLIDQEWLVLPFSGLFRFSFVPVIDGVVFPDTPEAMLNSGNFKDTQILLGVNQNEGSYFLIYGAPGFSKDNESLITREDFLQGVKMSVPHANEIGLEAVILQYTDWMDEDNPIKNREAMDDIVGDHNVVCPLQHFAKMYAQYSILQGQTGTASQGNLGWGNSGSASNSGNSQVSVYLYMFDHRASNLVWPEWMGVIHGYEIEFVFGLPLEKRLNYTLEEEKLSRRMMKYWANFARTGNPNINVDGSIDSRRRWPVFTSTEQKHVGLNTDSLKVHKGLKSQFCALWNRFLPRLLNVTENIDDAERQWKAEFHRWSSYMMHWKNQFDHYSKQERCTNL

MAO-B [4] = molecular target: T2, MAO-B; test: Reversibility of MAO-B inhibition by dialysis; type: biochemical
Method: Reversibilities of EH7 were analyzed using a dialysis method after preincubating with MAO-B for 30 min, as previously described. […] The relative activities for undialyzed (AU) and dialyzed (AD) samples were compared to determine the reversibility patterns.

Compound	Bibliography Pe [1]	remaining activity at 10 µM (recombinant human MAO-A)	IC50 (recombinant human MAO-A)	Papp [2]	SI (selectivity index) (MAO-B [3])	remaining activity at 10 µM (MAO-B [3])	IC50 (MAO-B [3])	remaining activity at 10 µM (AChE)	Ki (recombinant human MAO-A)	Type of MAO-A inhibition (recombinant human MAO-A)	Ki (MAO-B [3])	Type of MAO-B inhibition (MAO-B [3])	Relative activity of undialyzed sample (AU) (MAO-B [4]; EH7 0.15 µM, lazabemide 0.20 µM, pargyline 0.30 µM, 30 min preincubation)	Relative activity of dialyzed sample (AD) (MAO-B [4]; EH7 0.15 µM, lazabemide 0.20 µM, pargyline 0.30 µM, 30 min preincubation, dialysis)	Reversibility of MAO-B inhibition (MAO-B [4]; dialysis)	Experimental Pe ([2]; PAMPA-BBB)	Prediction (CNS permeability) ([2]; PAMPA-BBB)
NCCc1ccc(O)c(O)c1 [Dopamine]	0.2 ×10⁻⁶ cm/s																
CCOc1ccc(C2=NNC(c3ccc(Br)cc3)C2)cc1 (stereo not shown) [EH8, 5-(4-bromophenyl)-3-(4-ethoxyphenyl)-4,5-dihydro-1H-pyrazole]		33.5 ± 0.65%	4.31 ± 0.013 µM	14.6 ± 0.26 ×10⁻⁶ cm/s	6.3	11.3 ± 0.13%	0.69 ± 0.017 µM	53.7 ± 2.15%									
CCOc1ccc(C2=NNC(c3ccc(F)cc3)C2)cc1 (stereo not shown) [EH7, 3-(4-ethoxyphenyl)-5-(4-fluorophenyl)-4,5-dihydro-1H-pyrazole]		46.9 ± 1.25%	8.38 ± 0.88 µM	14.1 ± 0.71 ×10⁻⁶ cm/s	133.0	4.03 ± 0.53%	0.063 ± 0.0042 µM	74 ± 0.71%	3.64 ± 0.18 µM	competitive inhibitor	0.034 ± 0.0067 µM	competitive inhibitor	12.5%	89.5%	reversible inhibitor		
CC(=O)[C@H]1CC[C@H]2[C@@H]3CCC4=CC(=O)CC[C@]4(C)[C@H]3CC[C@]12C [Progesterone, reference compound]																9.02 ± 0.11 ×10^−6 cm/s	
CN1C(C(=O)Nc2ccccn2)=C(O)c2ccccc2S1(=O)=O [Piroxicam, reference compound]	2.5 ×10⁻⁶ cm/s			2.43 ± 0.3 ×10⁻⁶ cm/s													CNS+/−
CCOc1ccc(C2=NNC(c3ccc(Cl)cc3)C2)cc1 (stereo not shown) [EH6, 5-(4-chlorophenyl)-3-(4-ethoxyphenyl)-4,5-dihydro-1H-pyrazole]		68.1 ± 0.18%	22.3 ± 0.12 µM	14.3 ± 0.8 ×10⁻⁶ cm/s		19.4 ± 1.01%	0.4 ± 0.051 µM	63.5 ± 4.99%	10.8 ± 1.03 µM	competitive inhibitor	0.19 ± 0.016 µM	competitive inhibitor					
CCOc1ccc(C2=NNC(c3ccccc3)C2)cc1 (stereo not shown) [EH1, 3-(4-ethoxyphenyl)-5-phenyl-4,5-dihydro-1H-pyrazole]		99.1 ± 0.27%	> 40 µM	10.3 ± 0.33 ×10⁻⁶ cm/s	>7.43	33.7 ± 0.96%	5.38 ± 0.16 µM	81 ± 6.21%									
